Measurements: ChEMBL document CHEMBL1201862, “PubChem BioAssay data set” (2004)
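Protocol summary: plate cells (96-well), add compound at 5 concentrations, incubate 48 h, interpolate endpoints linearly. Here, GI50 denotes the concentration required for 50% inhibition of growth.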 Calls of active or inactive are those of the source. Cut-off read from the data, not from the text of the source: active = GI50 up to about 1.1 µM and inactive = higher.

Legend:
Assay in all cases: DTP human tumour cell line panel, 48 h
ACHN = system: ACHN
CAKI-1 = system: CAKI-1
COLO 205 = system: COLO 205
HL-60 = system: HL-60
HOP-62 = system: HOP-62
Hs-578T = system: Hs-578T
LOX IMVI = system: LOX IMVI
M14 = system: M14
MDA-MB-435 = system: MDA-MB-435
NCI-H226 = system: NCI-H226
NCI-H23 = system: NCI-H23
NCI-H522 = system: NCI-H522
NCI/ADR-RES = system: NCI/ADR-RES
RPMI-8226 = system: RPMI-8226
SF-268 = system: SF-268
SF-295 = system: SF-295
SF-539 = system: SF-539
SK-MEL-5 = system: SK-MEL-5
SW-620 = system: SW-620
UACC-257 = system: UACC-257

Measured: GI50

CC(C)N(CC(=O)O)CC(=O)O
inactive: ACHN > 100 µM | CAKI-1 > 100 µM | COLO 205 > 100 µM | HL-60 > 100 µM | HOP-62 > 100 µM | Hs-578T > 100 µM | LOX IMVI > 100 µM | M14 > 100 µM | MDA-MB-435 > 100 µM | NCI-H226 > 100 µM | NCI-H23 > 100 µM | NCI-H522 > 100 µM | NCI/ADR-RES > 100 µM | RPMI-8226 > 100 µM | SF-268 > 100 µM | SF-295 > 100 µM | SF-539 > 100 µM | SK-MEL-5 > 100 µM | SW-620 > 100 µM | UACC-257 > 100 µM

COC(=O)c1ccc(C)cc1CC1Cc2c(C)cccc2C1=O (stereo not given)
inactive: ACHN 22.2 µM | CAKI-1 6.4 µM | COLO 205 5.69 µM | HL-60 4.54 µM | HOP-62 13.6 µM | Hs-578T 8.55 µM | LOX IMVI 8.09 µM | M14 9.27 µM | MDA-MB-435 1.82 µM | NCI-H226 13.7 µM | NCI-H23 12.4 µM | NCI-H522 4.46 µM | NCI/ADR-RES 3.35 µM | RPMI-8226 4.65 µM | SF-268 9.89 µM | SF-295 7.73 µM | SF-539 8.17 µM | SK-MEL-5 5.82 µM | SW-620 3.85 µM | UACC-257 10.4 µM

CC(C)c1nc(Cl)c(Cl)c(Cl)n1
inactive: CAKI-1 2.09 µM | COLO 205 2.71 µM | HL-60 1.71 µM | HOP-62 12.6 µM | Hs-578T 2.76 µM | M14 5.51 µM | MDA-MB-435 4.2 µM | NCI-H226 17.7 µM | NCI-H23 4.06 µM | NCI/ADR-RES 5.78 µM | RPMI-8226 1.31 µM | SF-268 1.91 µM | SF-295 14.5 µM | SF-539 9.2 µM | SK-MEL-5 16.2 µM | SW-620 1.7 µM | UACC-257 4.29 µM
active: ACHN 0.769 µM | LOX IMVI 0.246 µM | NCI-H522 0.759 µM

CCOC(=O)CCSc1nc2ccc(I)cc2c(=O)n1Cc1ccccc1
inactive: ACHN 29.5 µM | CAKI-1 2.67 µM | COLO 205 12.4 µM | HL-60 19.5 µM | HOP-62 26.5 µM | Hs-578T 25.2 µM | LOX IMVI 28.2 µM | M14 24.5 µM | MDA-MB-435 27.5 µM | NCI-H226 21.6 µM | NCI-H23 15.6 µM | NCI-H522 10.7 µM | NCI/ADR-RES 23.7 µM | RPMI-8226 5.22 µM | SF-268 27.2 µM | SF-295 21.7 µM | SF-539 36.4 µM | SK-MEL-5 12.6 µM | SW-620 41.1 µM | UACC-257 25.5 µM

c1ccc(CSc2ccccc2CN2CCN(Cc3ccccc3SCc3ccccc3)CCN(Cc3ccccc3SCc3ccccc3)CC2)cc1
active: COLO 205 0.869 µM | NCI-H23 0.951 µM | NCI-H522 0.395 µM | RPMI-8226 0.384 µM | SF-295 1.04 µM
inactive: ACHN 2.58 µM | CAKI-1 3.21 µM | HL-60 1.5 µM | HOP-62 1.93 µM | Hs-578T 1.85 µM | LOX IMVI 1.33 µM | M14 1.55 µM | MDA-MB-435 1.31 µM | NCI-H226 1.81 µM | NCI/ADR-RES 2.44 µM | SF-268 2.94 µM | SF-539 1.86 µM | SK-MEL-5 1.57 µM | SW-620 2.38 µM | UACC-257 1.39 µM

CCOC(=O)C1(C(=O)OCC)C[C@H](C)[C@](C)(O)C1
inactive: ACHN > 100 µM | CAKI-1 > 100 µM | COLO 205 > 100 µM | HL-60 37.8 µM | HOP-62 > 100 µM | Hs-578T > 100 µM | LOX IMVI > 100 µM | M14 > 100 µM | MDA-MB-435 > 100 µM | NCI-H226 > 100 µM | NCI-H23 > 100 µM | NCI-H522 > 100 µM | NCI/ADR-RES > 100 µM | RPMI-8226 > 100 µM | SF-268 > 100 µM | SF-295 > 100 µM | SF-539 > 100 µM | SK-MEL-5 > 100 µM | SW-620 > 100 µM | UACC-257 > 100 µM

O=c1c(Cl)nsnc1Cl
inactive: ACHN 6.1 µM | CAKI-1 4.26 µM | COLO 205 1.83 µM | HOP-62 18.7 µM | Hs-578T 30.2 µM | LOX IMVI 9.23 µM | M14 5.01 µM | MDA-MB-435 14.2 µM | NCI-H226 22.9 µM | NCI-H23 23.3 µM | NCI-H522 2.02 µM | NCI/ADR-RES 40.1 µM | RPMI-8226 1.54 µM | SF-268 26.4 µM | SF-295 18.4 µM | SF-539 12.9 µM | SK-MEL-5 16.5 µM | SW-620 3.43 µM | UACC-257 10.4 µM
active: HL-60 0.787 µM

O=C1Oc2ccccc2C(=O)/C1=C/N1C(=O)CNC1=S
inactive: ACHN 56.8 µM | CAKI-1 > 100 µM | COLO 205 > 100 µM | HL-60 44 µM | HOP-62 > 100 µM | Hs-578T > 100 µM | LOX IMVI > 100 µM | M14 > 100 µM | MDA-MB-435 > 100 µM | NCI-H226 > 100 µM | NCI-H23 > 100 µM | NCI-H522 > 100 µM | NCI/ADR-RES > 100 µM | RPMI-8226 > 100 µM | SF-268 > 100 µM | SF-295 > 100 µM | SF-539 > 100 µM | SK-MEL-5 > 100 µM | SW-620 > 100 µM | UACC-257 > 100 µM

CCCc1c(O)c(=O)c2c(OC)cc(OC)c3c4c(OC)cc(OC)c5c(=O)c(O)c(CCC)c(c1c23)c54
active: ACHN 0.617 µM | CAKI-1 0.394 µM | HOP-62 0.543 µM | Hs-578T 0.468 µM | LOX IMVI 0.338 µM | M14 0.755 µM | MDA-MB-435 0.371 µM | NCI-H23 0.474 µM | NCI-H522 0.199 µM | NCI/ADR-RES 0.9 µM | RPMI-8226 0.192 µM | SF-268 0.714 µM | SF-295 0.37 µM | SF-539 0.361 µM | SK-MEL-5 0.533 µM
inactive: COLO 205 2.44 µM | HL-60 1.74 µM | NCI-H226 1.63 µM | SW-620 1.13 µM | UACC-257 1.15 µM

COC1C(O)=C2C(=O)O/C(C)=C/C=C/C=C/C=C\CC(c3ccccc3)NC(=O)\C=C/C=C\C=C\C=C\[C@@]2(C)[C@@H]1O (stereo not given in full)
active: ACHN < 0.01 µM | CAKI-1 < 0.0203 µM | COLO 205 0.0104 µM | HL-60 < 0.01 µM | HOP-62 < 0.0334 µM | Hs-578T < 0.01 µM | LOX IMVI 0.0176 µM | M14 < 0.0371 µM | MDA-MB-435 < 0.01 µM | NCI-H226 0.0175 µM | NCI-H23 0.0144 µM | NCI-H522 < 0.01 µM | NCI/ADR-RES < 0.01 µM | RPMI-8226 < 0.01 µM | SF-268 < 0.028 µM | SF-295 < 0.01 µM | SF-539 < 0.01 µM | SK-MEL-5 0.0395 µM | SW-620 < 0.01 µM | UACC-257 < 0.0129 µM

O=S1(=O)OC(c2ccc(O)cc2)(c2ccc(O)cc2)c2ccccc21 [PHENOLSULFONPHTHALEIN]
inactive: ACHN > 100 µM | CAKI-1 > 100 µM | COLO 205 > 100 µM | HL-60 > 100 µM | HOP-62 > 100 µM | Hs-578T > 100 µM | LOX IMVI > 100 µM | M14 > 100 µM | MDA-MB-435 > 100 µM | NCI-H226 > 100 µM | NCI-H23 > 100 µM | NCI-H522 > 100 µM | NCI/ADR-RES > 100 µM | RPMI-8226 > 100 µM | SF-268 > 100 µM | SF-295 > 100 µM | SF-539 > 100 µM | SK-MEL-5 > 100 µM | SW-620 > 100 µM | UACC-257 > 100 µM
